In one series the test system is ALM12 hepatocytes. As to the kind of experiment: Anti H2O2-induced necrotic injury assay in ALM12 hepatocytes (microscopy, CCK-8). It is filed as cell-based. The settings on record: 2 mM H2O2, 1 μM compound, 3 hours, microscope and CCK-8. As for the experimental part: In this example, the effect of the compounds of the present invention on the level of necrotic injury induced by H2O2 in ALM12 hepatocytes was analyzed by microscopic morphological observations, cell viability in combination with cell death-associated molecules. Cell viability was analyzed by CCK-8 assay. ALM12 cells were cultured in 1640 medium (gibco, c11995500BT)+10% FBS (gibco, 10099141C) in a constant temperature incubator at 37° C., 5% CO2; the CCK-8 kit was purchased from Meilunbio, item no. MA0218-3; H2O2 was purchased from Sinopharm Chemical Reagent Co. item no. 10011208.
Experimental methods: first, 8000 cells/well ALM12 cells were placed in 96-well plates and incubated overnight. On the second day, 0.1% DMSO was added to the control cells, 2 mM H2O2 as well as 0.1% DMSO was added to the model group, 2 mM H2O2 as well as 1 μM of the compounds (oxy, 1, 2, tet, 3, 4, 6, 58) was added to the treatment group, and the 96-well plates were sterilized and incubated in a constant temperature incubator for 3 hours. Finally, cell injury and growth were observed using a microscope; the viability of the cells was detected by CCK-8 kit.

The subject of series [1] is Raw 264.7 cells. As to the kind of experiment: Cell viability in TNF-α induced inflammation model of Raw 264.7 cells (CCK-8). Type of series: cell-based. The settings on record: 10 ng/ml TNF-α, 1 μM compound, 16 hours. As for the experimental part: (§1) In this embodiment, the effect of compounds on TNF-α-induced inflammation levels in Raw 264.7 cells was analyzed by cell viability combined with inflammatory factor expression levels; cell viability was analyzed by CCK-8 assay; and mRNA expression levels of inflammation-associated indicators were detected by real-time quantitative PCR (Q-PCR) method. Raw 264.7 cells were purchased from ATCC, CCK-8 kit was purchased from Meilunbio, item number MA0218-3, TNF-α was purchased from Merck, item no. GF314.
Experimental methods: first, 8000 cells/well Raw 264.7 cells were placed in 96-well plates and incubated overnight. On the second day, 0.1% DMSO was added to the control cells, 10 ng/ml TNF-α as well as 0.1% DMSO was added to the model group, 10 ng/ml TNF-α as well as 1 μM of the compounds (oxyacanthine hydrochloride (oxy), 1, 2, tetrandrine (tet), 3, 4, 6, 58) was added to the treatment group, and the 96-well plates were sterilized and incubated in a constant temperature incubator for 16 hours. Finally, the viability of the cells was detected using the CCK-8 kit.

Series [2] has as its system Th1/Th17 differentiation of CD4+T cells. As to the kind of experiment: CD4+T cell in vitro differentiation assay (Th1 IFN-γ / Th17 IL-17A, flow cytometry). The settings on record: 10 μM, 72 h, IFN-γ/IL-17A by flow cytometry.
Procedure: CD4^+T cell isolation: CD4^+T cells were isolated from the spleens of 7-8 week old C57BL/6 mice using the Mouse CD4^+T Cell Sorting Kit (Dynabeads® Untouched™ Mouse CD4 Cells Isolation Kit, Invitrogen, Catalog nos: 11415D).
In vitro differentiation of CD4^+T cells: the isolated CD4^+T cells were inoculated into 96-well plates while different concentrations of compounds were added, and then corresponding cytokines and antibodies were added: anti-CD28 (2 μg/ml), anti-CD3 (2 μg/ml), Anti-IL-4 (10 μg/ml), IL-12 (10 ng/ml), Anti-IFN-γ (10 μg/ml), anti-IL-4 (10 μg/ml), IL-6 (30 ng/ml), TGF-β1 (3 ng/ml), IL-10 (10 ng/ml), IL-23 (10 ng/ml), and TNF-α (10 ng/ml). Cells were cultured in 5% CO2 at 37° C. in a cell culture chamber for 72 h. Cells were collected, stained intracellularly, analyzed by flow cytometry, and tested for IFN-γ/IL-17A content to assess the effect of compounds on CD4^+T differentiation into Th1/Th17 in vitro.
For series [3], the system named is 2019 novel coronavirus (SARS-CoV-2) original strain. As to the kind of experiment: Replication inhibitory activity against SARS-CoV-2 original strain in Vero E6 cells (qRT-PCR). The settings on record: Severe acute respiratory syndrome coronavirus 2, Vero C1008; Vero E6 cells, MOI 0.01, 24 h p.i., viral copy number by qRT-PCR; read-out: Inhibition against viral replication of the original strain EC50. Type of series: cell-based. In general terms: Real-time PCR tracks product formation cycle by cycle.

Series [4] relates to TNF-α and IL1β mRNA in A549 cells. The series is described as follows: mRNA levels of injury indicators in TNF-α-induced A549 cell injury (Q-PCR). It is filed as cell-based. The following applies: 10 ng/ml TNF-α, 1 μM compound, 24 hours. Here is the method: In this example, cell viability combined with cell death-associated molecules were used to analyze the effect of compounds on the level of TNF-α-induced injury in A549 lung epithelial cells. Cell injury was observed by microscopy; cell viability was analyzed by CCK-8 assay; and mRNA expression levels of injury-related indicators were detected by real-time quantitative PCR (Q-PCR) method. A549 cells were purchased from ATCC, CCK-8 kit was purchased from Meilunbio, item no. MA0218-3, and LPS was purchased from Sigma, item no. L2630.
(§2) Experimental methods: first, 5*10^4 cells/well A549 cells were placed in 12-well plates and incubated overnight. On the second day, 0.1% DMSO was added to the control cells, 10 ng/ml TNF-α as well as 0.1% DMSO was added to the model group, 10 ng/ml TNF-α as well as 1 μM of the compounds (oxy, 1, 2, tet, 3, 4, 6, 58) was added to the treatment group, and the 12-well plates were sterilized and incubated in a constant temperature incubator for 24 hours. Cellular mRNA was extracted by lysis using Trizol (Yisheng, 10606ES60) and detected by real-time quantitative PCR after reverse transcription.

Series [5] has as its system inflammatory factor mRNA in Raw 264.7 cells. As to the kind of experiment: mRNA levels of inflammatory indicators in TNF-α-induced inflammation model of Raw264.7 cells (Q-PCR). It is filed as cell-based. The following applies: 10 ng/ml TNF-α, 1 μM compound, 16 hours. As for the experimental part: as §1
as §2, with “Raw 264.7” for “A549”, “(oxyacanthine hydrochloride (oxy),” for “(oxy,”, “tetrandrine (tet),” for “tet,”, “16” for “24”, “transcription, the primers are the same as in Table 2.” for “transcription.”

For series [6], the system named is Raw 264.7 cells. As to the kind of experiment: Cell viability in LPS-induced inflammation model of Raw 264.7 cells (CCK-8). It is filed as cell-based. The following applies: 1 μg/ml LPS, 1 μM compound, 16 hours. Here is the method:
(§3) In this example, the effect of the compounds of the present invention on the inflammation level of the LPS-induced inflammation model of Raw 264.7 cells was analyzed by cell viability in combination with inflammatory factors; cell viability was analyzed by CCK-8 assay; and mRNA expression levels of inflammation-related indicators were detected by a real-time quantitative PCR (Q-PCR) method. Raw 264.7 cells were purchased from ATCC; CCK-8 kit was purchased from Meilunbio, item no. MA0218-3; LPS was purchased from Sigma, item no. L2630.
Experimental methods: first, 8000 cells/well Raw 264.7 cells were placed in 96-well plates and incubated overnight. On the second day, 0.1% DMSO was added to the control cells, 1 μg/ml LPS as well as 0.1% DMSO was added to the model group, 1 μg/ml LPS as well as 1 μM of the compounds (oxyacanthine hydrochloride (oxy), 1, 2, tetrandrine (tet), 3, 4, 6, 58) was added to the treatment group, and the 96-well plates were sterilized and incubated in a constant temperature incubator for 16 hours. Finally, the viability of the cells was detected using the CCK-8 kit.

In series [7] the test system is IL-6, IL-1β, CXCL9 mRNA in Raw 264.7 cells. The series is described as follows: mRNA levels of inflammatory indicators in LPS-induced inflammation model of Raw264.7 cells (Q-PCR). It is filed as cell-based. The settings on record: 1 μg/ml LPS, 1 μM compound, 16 hours. Here is the method: as §3
as §2, with “Raw 264.7” for “A549”, “1 μg/ml LPS” for “10 ng/ml TNF-α”, “(oxyacanthine hydrochloride (oxy),” for “(oxy,”, “tetrandrine (tet),” for “tet,”, “16” for “24”

For another series, the target named is T1, hERG potassium channel (Homo sapiens, UniProt Q12809).
T1 construct: expressed in transfected cells
The series is described as follows: hERG potassium channel whole-cell membrane clamp in CHO cells. The settings on record: CHO cells stably expressing hERG, whole-cell membrane clamp. Type of series: cell-based. Here is the method:
Compounds were given for at least 1 min for each tested concentration, and at least 2 cells (n≥2) were tested per concentration.
For orientation: The hERG channel carries a current that helps repolarise heart muscle cells.

Another series has as its system Vero E6 cells. As to the kind of experiment: Cytotoxicity test on Vero E6 cells (CCK8). Type of series: cell-based. The settings on record: Vero E6 cells. As for the experimental part: (§4) In this embodiment, the half toxicity concentration of each embodiment on Vero E6 cells was determined by CCK8 kit analysis (CC50).
The nature of series [8]: Cytotoxicity test on Vero E6 cells (CCK8). Type of series: cell-based. The following applies: African green monkey; Vero E6 cells, CCK8 kit. As for the experimental part: as §4
On the technique in general: Formazan colour is commonly taken as a measure of viable cells.

Another series deals with HCoV OC43 virus. As to the kind of experiment: Inhibition against HCoV OC43 virus replication. It is filed as cell-based, human coronavirus HCoV OC43. The settings on record: for EC50: Betacoronavirus 1, OC43.
Series [9] deals with novel coronavirus envelope protein (2-E) ion channel (Severe acute respiratory syndrome coronavirus 2, UniProt P0DTC4). As to the kind of experiment: Novel coronavirus envelope protein (2-E) ion channel activity test, planar lipid bilayer (BLM). Type of series: biochemical, SARS-CoV-2. The settings on record: room temperature, 1, 10, 50, 100 μM, read-out: Inhibition against 2-E ion channels IC50.

Data on 4 molecules can be found in patent publication US20250296937A1, “CYCLIC BISBENZYL TETRAHYDROISOQUINOLINE COMPOUND, AND PREPARATION METHOD THEREFOR AND USE THEREOF” (Shanghai Institute of Materia Medica, Chinesse Academy of …, priority 2021, published 2025).

Entries after “also recorded” stand apart in the source; their conditions may differ.

T1 sequence (Q12809 whole entry): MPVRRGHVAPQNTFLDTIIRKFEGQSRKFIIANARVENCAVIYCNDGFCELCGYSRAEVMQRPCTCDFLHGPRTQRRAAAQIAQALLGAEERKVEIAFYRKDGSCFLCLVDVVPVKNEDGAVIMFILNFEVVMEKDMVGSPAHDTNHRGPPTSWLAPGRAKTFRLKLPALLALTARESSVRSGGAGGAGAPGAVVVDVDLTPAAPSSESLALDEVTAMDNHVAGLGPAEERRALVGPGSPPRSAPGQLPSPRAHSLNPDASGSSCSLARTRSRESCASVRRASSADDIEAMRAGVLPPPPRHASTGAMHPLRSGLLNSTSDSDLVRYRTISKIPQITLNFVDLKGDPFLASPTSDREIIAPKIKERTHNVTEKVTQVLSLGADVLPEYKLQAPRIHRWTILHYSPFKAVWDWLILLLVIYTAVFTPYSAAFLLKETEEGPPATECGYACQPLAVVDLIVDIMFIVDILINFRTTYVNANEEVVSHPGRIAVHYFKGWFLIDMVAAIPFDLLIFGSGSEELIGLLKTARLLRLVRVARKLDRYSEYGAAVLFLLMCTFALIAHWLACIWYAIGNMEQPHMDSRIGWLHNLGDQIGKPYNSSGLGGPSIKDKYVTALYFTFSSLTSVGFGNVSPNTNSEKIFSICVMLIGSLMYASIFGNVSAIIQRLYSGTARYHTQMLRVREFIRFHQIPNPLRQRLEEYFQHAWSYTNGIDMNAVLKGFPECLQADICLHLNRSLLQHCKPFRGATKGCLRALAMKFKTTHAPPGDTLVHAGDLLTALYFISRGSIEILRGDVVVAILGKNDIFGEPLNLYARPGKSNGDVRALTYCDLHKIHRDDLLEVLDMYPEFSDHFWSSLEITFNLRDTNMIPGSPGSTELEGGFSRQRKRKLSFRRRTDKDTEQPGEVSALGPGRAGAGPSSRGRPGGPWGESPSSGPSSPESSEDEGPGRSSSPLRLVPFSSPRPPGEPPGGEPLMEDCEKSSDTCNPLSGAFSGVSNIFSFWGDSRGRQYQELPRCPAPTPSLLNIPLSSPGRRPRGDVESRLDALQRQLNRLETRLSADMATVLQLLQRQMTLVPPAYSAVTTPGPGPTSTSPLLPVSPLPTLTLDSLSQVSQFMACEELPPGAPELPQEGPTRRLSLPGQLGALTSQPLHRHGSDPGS
Sequence of novel coronavirus envelope protein (2-E) ion channel (P0DTC4 whole entry, looked up): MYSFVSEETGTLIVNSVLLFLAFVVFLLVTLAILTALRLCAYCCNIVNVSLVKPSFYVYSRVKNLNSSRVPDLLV

In general, EC50 refers to the concentration giving half of the maximal effect. In general, IC50 refers to the point on the concentration scale where inhibition reaches its midpoint. Consider `COc1cc2c3cc1Oc1c(OC)c(OC)cc4c1[C@H](Cc1ccc(cc1)Oc1cc(ccc1C(=O)OCCOCCO)C[C@H]3N(C)CC2)N(C)CC4` [Compound 58], for which the “alleviation of H2O2-induced ALM12 hepatocyte injury” value (shortened to “alleviation”) in the series on ALM12 hepatocytes is “significantly alleviated”. Moreover, in the series with Raw 264.7 cells [1], the “cell viability in TNF-α-induced inflammation model” value is “did not affect cell viability”. Further, the “inhibitory effect on Th1/Th17 differentiation” value in series [2] was “strong inhibitory effect”. Also, the EC50 in series [3] lay within 0.1 to 1 µM. The “inhibition of injury (damage) factors mRNA in TNF-α-induced A549 lung cell injury model” value in series [4] was “significantly inhibited the damage factors”. The “inhibition of inflammatory factors (mRNA) in TNF-α-induced inflammation model” value (“inhibition … in TNF-α-induced inflammation model” below) in series [5] is on record as “significantly inhibited inflammatory factors; also recorded: significant inhibition”. Also, the “cell viability in LPS-induced inflammation model” value with Raw 264.7 cells [6] is on record as “did not affect cell viability”. For the same molecule, in [7], the “inhibition of inflammatory factors (IL-6, IL-1β, CXCL9 mRNA) in LPS-induced inflammation model” value was “significantly inhibited inflammatory factors; also recorded: significant inhibition”. Besides, the results for the IC50 (against hERG potassium channel; in series [8]) were 16.5 µM and > 50 µM, respectively. Also, in the series on Vero E6 cells, the “cytotoxicity on Vero E6 cells compared with oxyacanthine hydrochloride” value is listed as “weaker cytotoxicity than oxyacanthine hydrochloride”.

On to `COc1cc2c3cc1Oc1c(OC)c(OC)cc4c1[C@H](Cc1ccc(cc1)Oc1cc(ccc1C#N)C[C@H]3N(C)CC2)N(C)CC4` [Compound 1], for which the “alleviation” value in the series on ALM12 hepatocytes is “significantly alleviated”. Also, the results for the EC50 (in the series on HCoV OC43 virus; in series [3]) were 4.2 µM and 0.1 to 1 µM, respectively. Further, the “cell viability in TNF-α-induced inflammation model” value in the series with Raw 264.7 cells [1] was “did not affect cell viability”. Further, the half-maximal inhibitory concentration (IC50) in [9] was < 10 µM; on hERG potassium channel, 6.4 µM; in series [8], 10 to 30 µM. Moreover, the “cell viability in LPS-induced inflammation model” value in the series with Raw 264.7 cells [6] was “did not affect cell viability”.

For the molecule `COC(=O)c1ccc2cc1Oc1ccc(cc1)C[C@H]1c3c(cc(OC)c(OC)c3Oc3cc4c(cc3OC)CCN(C)[C@@H]4C2)CCN1C` [Compound 3], the “alleviation” value with ALM12 hepatocytes is given as “significantly alleviated”. Moreover, the “inhibition against human coronavirus HCoV OC43” value with HCoV OC43 virus was “strong inhibition”. Besides, the 50% effective concentration (EC50) in the series on HCoV OC43 virus is 2.3 µM; in series [3], 0.1 to 1 µM. Also, the “cell viability in TNF-α-induced inflammation model” value in the series with Raw 264.7 cells [1] is “did not affect cell viability”. Also, the “inhibitory effect on Th1/Th17 differentiation” value in series [2] was “strong inhibitory effect”. Also, the IC50 was < 10 µM in [9], 7 µM against hERG potassium channel and 30 to 50 µM in series [8]. For the same molecule, in series [4], the “inhibition of injury (damage) factors mRNA in TNF-α-induced A549 lung cell injury model” value is recorded as “significantly inhibited the damage factors”. Moreover, in [5], the “inhibition … in TNF-α-induced inflammation model” value is “significantly inhibited inflammatory factors; also recorded: significant inhibition”. For the same molecule, the “cell viability in LPS-induced inflammation model” value in the series on Raw 264.7 cells [6] is reported as “did not affect cell viability”. In addition, in the series on Vero E6 cells, the “cytotoxicity on Vero E6 cells compared with oxyacanthine hydrochloride” value was “weaker cytotoxicity than oxyacanthine hydrochloride”.

As for `COc1cc2c3cc1Oc1c(OC)c(OC)cc4c1[C@H](Cc1ccc(cc1)Oc1cc(ccc1C(=O)NC1CC1)C[C@H]3N(C)CC2)N(C)CC4` [Compound 6], the “alleviation” value in the series with ALM12 hepatocytes is “significantly alleviated”. Moreover, the “cell viability in TNF-α-induced inflammation model” value with Raw 264.7 cells [1] is reported as “did not affect cell viability”. In addition, the “inhibitory effect on Th1/Th17 differentiation” value in [2] is “strong inhibitory effect”. For the same molecule, the EC50 in [3] was in the range of 0.1 to 1 µM. The “inhibition … in TNF-α-induced inflammation model” value in series [5] is on record as “significantly inhibited inflammatory factors; also recorded: significant inhibition”. Also, in the series with Raw 264.7 cells [6], the “cell viability in LPS-induced inflammation model” value is given as “did not affect cell viability”. For the same molecule, the IC50 is 8.9 µM on hERG potassium channel and > 50 µM in series [8]. In the series on Vero E6 cells, the “cytotoxicity on Vero E6 cells compared with oxyacanthine hydrochloride” value is reported as “weaker cytotoxicity than oxyacanthine hydrochloride”.
